The source of these data is ChEMBL document CHEMBL1147170, “Synthesis and biological evaluation of two glycerolipidic prodrugs of didanosine for direct lymphatic delivery against HIV” (Bioorg Med Chem Lett, 2007).

Molecules are shown by their SMILES.

For data set [1], the system named is Human immunodeficiency virus 1. Briefly: Antiviral activity against HIV1 LAI activity in phytohemagglutininin-activated human PBMC assessed as viral replication after 7 days. The settings on record: for EC50: Human immunodeficiency virus 1, LAI, 168 h, read-out: ED50 (the source's name). Format: functional.
A short description of data set [2]: (§1) Cytotoxicity against phytohemagglutininin-activated human PBMC after 7 days by MTT assay. Conditions: phytohemagglutinin-activated PBMC, read-out: CD50. It counts as cell-based. Background: Tetrazolium dyes change colour on reduction, which living cells bring about.
Another data set has as its system PBMC. The description is as §1. Conditions: pbmc, 168 h. Format: cell-based.

As to `CCCCCCCCCCCCCCCC(=O)OCC(COC(=O)CCCCCCCCCCCCCCC)OC(=O)CCCC(=O)OC[C@@H]1CC[C@H](n2cnc3c(=O)[nH]cnc32)O1`, in data set [1], the ED90 is above 12 µM and the EC50 amounted to 2800 nM. In addition, the CC50 at 168 h in data set [2] was above 12 µM. Further, the CD90 with PBMC was above 12 µM.
For `O=c1[nH]cnc2c1ncn2[C@H]1CC[C@@H](CO)O1` [DIDANOSINE], in data set [1], the ED90 is 4.8 µM and the EC50 amounted to 1200 nM. The CC50 at 168 h in data set [2] turned out to be 40 µM. Besides, the CD90 in the data set on PBMC is above 50 µM.
For `CCCCCCCCCCCCCCCC(=O)OCC(COC(=O)CCCCCCCCCCCCCCC)OC(=O)CCCCCOP(=O)(O)OC[C@@H]1CC[C@H](n2cnc3c(=O)[nH]cnc32)O1`, in that order: above 50 µM, 28500 nM, above 50 µM and above 50 µM.
